Source: patent publication US9611224B2 (Hoffmann-La Roche Inc., priority 2012, dated 2017)
pIC50: −log10 of the molar value. Counter-ions that a name gives are not always drawn.

Each compound was assayed against BIR3 domain of XIAP (Homo sapiens (Human), UniProt P98170) (assay: TR-FRET assay for BIR3 (inhibition of binding to Peptide A)). Conditions: 6x His-tagged BIR3 domain (aa 241-356 of XIAP), 20 nM Peptide A, 10 concentrations.
Procedure: TR-FRET Assay for BIR2 and BIR3
Percentage of inhibition at each concentration was determined to generate an IC50 value for each test compound.

Chain of BIR3 domain of XIAP (P98170 other isoform, or with tags, fused parts or gaps): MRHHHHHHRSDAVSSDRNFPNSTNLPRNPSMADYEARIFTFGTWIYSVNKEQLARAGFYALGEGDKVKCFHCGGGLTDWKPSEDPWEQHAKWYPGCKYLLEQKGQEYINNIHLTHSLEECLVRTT

Compound | pIC50
CN[C@@H](C)C(=O)N[C@H]1CCc2ccccc2N(Cc2c(OC)ccc3cc(-c4cn[nH]c4)ccc23)C1=O [Example 43, (S)—N—{(S)-1-[2-Methoxy-6-(1H-pyrazol-4-yl)-naphthalen-1-ylmethyl]-2-oxo-2,3,4,5-tetrahydro-1H-benzo[b]azepin-3-yl}-2-methylamino-propionamide hydrochloride] | < 4.26
CN[C@@H](C)C(=O)N[C@H]1CCc2ccccc2N(Cc2c(OC)ccc3c2CCCC3)C1=O [Example 44, (S)—N—[(S)-1-(2-Methoxy-5,6,7,8-tetrahydro-naphthalen-1-ylmethyl)-2-oxo-2,3,4,5-tetrahydro-1H-benzo[b]azepin-3-yl]-2-methylamino-propionamide hydrochloride] | < 4.24
CN[C@@H](C)C(=O)N[C@H]1CCc2ccccc2N(Cc2c(OC)ccc3cc(C(C)=O)ccc23)C1=O [Example 45, (S)—N—[(S)-1-(6-Acetyl-2-methoxy-naphthalen-1-ylmethyl)-2-oxo-2,3,4,5-tetrahydro-1H-benzo[b]azepin-3-yl]-2-methylamino-propionamide hydrochloride] | < 4.26
C=Cc1ccc2c(CN3C(=O)[C@@H](NC(=O)[C@H](C)NC)CCc4ccccc43)c(OC)ccc2c1 [Example 46, (S)—N—[(S)-1-(2-Methoxy-6-vinyl-naphthalen-1-ylmethyl)-2-oxo-2,3,4,5-tetrahydro-1H-benzo[b]azepin-3-yl]-2-methylamino-propionamide hydrochloride] | < 4.26
CN[C@@H](C)C(=O)N[C@H]1CCc2ccccc2N(Cc2cnnc3ccccc23)C1=O [Example 47aa, (S)—N—((S)-1-Cinnolin-4-ylmethyl-2-oxo-2,3,4,5-tetrahydro-1H-benzo[b]azepin-3-yl)-2-methylamino-propionamide hydrochloride] | < 4.26
CN[C@@H](C)C(=O)N[C@H]1CCc2ccccc2N(Cc2c(C)ccc3ccccc23)C1=O [Example 47b, (S)-2-Methylamino-N—[(S)-1-(2-methyl-naphthalen-1-ylmethyl)-2-oxo-2,3,4,5-tetrahydro-1H-benzo[b]azepin-3-yl]-propionamide hydrochloride] | < 4.26
CN[C@@H](C)C(=O)N[C@H]1CCc2ccccc2N(Cc2c(C)cc(C)c3ccccc23)C1=O [Example 47bb, (S)—N—[(S)-1-(2,4-Dimethyl-naphthalen-1-ylmethyl)-2-oxo-2,3,4,5-tetrahydro-1H-benzo[b]azepin-3-yl]-2-methylamino-propionamide hydrochloride] | < 4.27
CN[C@@H](C)C(=O)N[C@H]1CCc2ccccc2N(Cc2c(OC)ccc3ccccc23)C1=O [Example 47c, (S)—N—[(S)-1-(2-Methoxy-naphthalen-1-ylmethyl)-2-oxo-2,3,4,5-tetrahydro-1H-benzo[b]azepin-3-yl]-2-methylamino-propionamide hydrochloride] | < 4.27
CN[C@@H](C)C(=O)N[C@H]1CCc2ccccc2N(Cc2ccnc3ncccc23)C1=O [Example 47cc, (S)-2-Methylamino-N—((S)-1-[1,8]naphthyridin-4-ylmethyl-2-oxo-2,3,4,5-tetrahydro-1H-benzo[b]azepin-3-yl)-propionamide hydrochloride] | < 4.26
CN[C@@H](C)C(=O)N[C@H]1CCc2ccccc2N(Cc2ccnc3ccccc23)C1=O [Example 47d, (S)-2-Methylamino-N—((S)-2-oxo-1-quinolin-4-ylmethyl-2,3,4,5-tetrahydro-1H-benzo[b]azepin-3-yl)-propionamide hydrochloride] | < 4.26
CN[C@@H](C)C(=O)N[C@H]1CCc2ccccc2N(Cc2c(OC(C)C)ccc3ccccc23)C1=O [Example 47dd, (S)—N—[(S)-1-(2-Isopropoxy-naphthalen-1-ylmethyl)-2-oxo-2,3,4,5-tetrahydro-1H-benzo[b]azepin-3-yl]-2-methylamino-propionamide hydrochloride] | < 4.26
CN[C@@H](C)C(=O)N[C@H]1CCc2ccccc2N(Cc2cccc3ncccc23)C1=O [Example 47e, (S)-2-Methylamino-N—((S)-2-oxo-1-quinolin-5-ylmethyl-2,3,4,5-tetrahydro-1H-benzo[b]azepin-3-yl)-propionamide hydrochloride] | < 4.26
CN[C@@H](C)C(=O)N[C@H]1CCc2ccccc2N(Cc2cccc3cc4ccccc4cc23)C1=O [Example 47ee, (S)—N—((S)-1-Anthracen-1-ylmethyl-2-oxo-2,3,4,5-tetrahydro-1H-benzo[b]azepin-3-yl)-2-methylamino-propionamide hydrochloride] | < 4.26
CN[C@@H](C)C(=O)N[C@H]1CCc2ccccc2N(Cc2ccc(C)c3ccccc23)C1=O [Example 47f, (S)-2-Methylamino-N—[(S)-1-(4-methyl-naphthalen-1-ylmethyl)-2-oxo-2,3,4,5-tetrahydro-1H-benzo[b]azepin-3-yl]-propionamide hydrochloride] | < 4.26
CN[C@@H](C)C(=O)N[C@H]1CCc2ccccc2N(Cc2cccc3ccc(Br)cc23)C1=O [Example 47ff, (S)—N—[(S)-1-(7-Bromo-naphthalen-1-ylmethyl)-2-oxo-2,3,4,5-tetrahydro-1H-benzo[b]azepin-3-yl]-2-methylamino-propionamide hydrochloride] | 4.32
CN[C@@H](C)C(=O)N[C@H]1CCc2ccccc2N(Cc2ccc(Br)c3ccccc23)C1=O [Example 47g, (S)—N—[(S)-1-(4-Bromo-naphthalen-1-ylmethyl)-2-oxo-2,3,4,5-tetrahydro-1H-benzo[b]azepin-3-yl]-2-methylamino-propionamide hydrochloride] | < 4.26
CN[C@@H](C)C(=O)N[C@H]1CCc2ccccc2N(Cc2cc(Br)cc3ccccc23)C1=O [Example 47gg, (S)—N—[(S)-1-(3-Bromo-naphthalen-1-ylmethyl)-2-oxo-2,3,4,5-tetrahydro-1H-benzo[b]azepin-3-yl]-2-methylamino-propionamide hydrochloride] | < 4.26
CN[C@@H](C)C(=O)N[C@H]1CCc2ccccc2N(Cc2cccc3ccccc23)C1=O [Example 47h, (S)-2-Methylamino-N—((S)-1-naphthalen-1-ylmethyl-2-oxo-2,3,4,5-tetrahydro-1H-benzo[b]azepin-3-yl)-propionamide hydrochloride] | < 4.27
CN[C@@H](C)C(=O)N[C@H]1CCc2ccccc2N(Cc2cccc3cccc(Br)c23)C1=O [Example 47hh, (S)—N—[(S)-1-(8-Bromo-naphthalen-1-ylmethyl)-2-oxo-2,3,4,5-tetrahydro-1H-benzo[b]azepin-3-yl]-2-methylamino-propionamide hydrochloride] | < 4.26
C#Cc1ccc2ccccc2c1CN1C(=O)[C@@H](NC(=O)[C@H](C)NC)CCc2ccccc21 [Example 47i, (S)—N—[(S)-1-(2-Ethynyl-naphthalen-1-ylmethyl)-2-oxo-2,3,4,5-tetrahydro-1H-benzo[b]azepin-3-yl]-2-methylamino-propionamide hydrochloride] | < 4.26
CN[C@@H](C)C(=O)N[C@H]1CCc2ccccc2N(Cc2c(OC)cnc3ccccc23)C1=O [Example 47ii, (S)—N—[(S)-1-(3-Methoxy-quinolin-4-ylmethyl)-2-oxo-2,3,4,5-tetrahydro-1H-benzo[b]azepin-3-yl]-2-methylamino-propionamide hydrochloride] | 4.35
